We go through 11 molecules from publication PMC8621172, “Manipulating Estrogenic/Anti-Estrogenic Activity of Triphenylethylenes towards Development of Novel Anti-Neoplastic SERMs” (International Journal of Molecular Sciences, 2021).

Several values for one entry are separate records, joined by “and”; a condition that tells them apart may be missing. Equal values may be shown once.

In one test the target is T1, human ERα (Homo sapiens, UniProt P03372).
T1 construct: host or cells: Saccharomyces cerevisiae
T1 sequence (P03372 1-595): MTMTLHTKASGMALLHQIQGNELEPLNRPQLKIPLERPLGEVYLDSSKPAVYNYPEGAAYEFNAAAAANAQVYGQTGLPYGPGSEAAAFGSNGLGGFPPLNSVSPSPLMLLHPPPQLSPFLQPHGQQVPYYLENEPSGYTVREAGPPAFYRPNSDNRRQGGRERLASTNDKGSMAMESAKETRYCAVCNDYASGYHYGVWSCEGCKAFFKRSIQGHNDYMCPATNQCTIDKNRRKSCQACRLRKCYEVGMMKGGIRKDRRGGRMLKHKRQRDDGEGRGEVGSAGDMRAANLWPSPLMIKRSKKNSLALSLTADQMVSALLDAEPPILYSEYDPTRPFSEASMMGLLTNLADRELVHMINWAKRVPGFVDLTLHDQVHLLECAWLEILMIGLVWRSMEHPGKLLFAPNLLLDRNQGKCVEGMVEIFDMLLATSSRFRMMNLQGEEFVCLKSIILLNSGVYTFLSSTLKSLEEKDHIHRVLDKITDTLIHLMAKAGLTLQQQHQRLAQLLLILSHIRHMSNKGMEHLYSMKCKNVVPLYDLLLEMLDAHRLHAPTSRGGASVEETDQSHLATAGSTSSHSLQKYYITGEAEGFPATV
The test can be described thus: Yeast estrogen screen (YES) assay, agonistic activity (β-galactosidase reporter). It is filed as cell-based. Particulars: triplicates; for Estrogenic Activity (relative β-galactosidase activity): compounds at 1 µM, compared to DMSO (set as 1); for EC50: YES assay. The procedure: All synthesized compounds were tested for their relative activity in β-galactosidase in a yeast estrogen screen (YES) assay. Compounds were tested for their relative estrogenic/anti-estrogenic activities in comparison to positive and negative controls, respectively. YES assay is a gene reporter assay where the DNA sequence of human ERα is integrated into the yeast genome completed with an expression plasmid carrying estrogen response elements (ERE) in the promoter controlling the expression of the reporter gene lacZ (encoding the enzyme β-galactosidase). In the presence of estrogenic compounds, β-galactosidase is synthesized and secreted into the medium, where it converts the chromogenic substrate chlorophenol red-β-D-galactopyranoside (CRPG) from a yellow to a red product, whose absorbance is measured. […] Therefore, we decided to test the novel compounds in an organ-specific in vitro model using the human Ishikawa endometrial adenocarcinoma cell line.
All synthesized compounds were tested for their relative β-galactosidase activity in a yeast estrogen screen (YES) assay at a concentration of 1 µM using DMSO as control (set as 1).
The yeast estrogen receptor assay was supplied by Dr. J.P. Sumpter (Brunel University, Uxbridge, UK) and was used to determine the relative transactivation activity of the human ERα as formerly described. Briefly, Saccharomyces cerevisiae stably transfected with a human ERα and an estrogen-responsive element fused to the reporter gene lacZ encoding for β-galactosidase were treated with the test substances for about 48 h. The β-galactosidase enzymatic activity was measured in a colorimetric assay using a microplate photometer by hydrolysis of the substrate chlorophenol red β-D-galactopyranoside (Roche Diagnostics, Mannheim, Germany), which leads to the formation of chlorophenol red. This can be measured as an increased absorption at 540 nm. All compounds were diluted in DMSO. […] All compounds were tested in technical quadruplicates and biological triplicates. Statistical analysis was performed by analysis of variance (ANOVA) and Tukey’s post-hoc test with the significance level of p < 0.05.

The test system of the next test is MCF-7 cells. Nature of the test: NCI growth inhibition on MCF-7 (single dose and five-dose, SRB). Particulars: for inhibition at 10 µM / GI50: Homo sapiens, MCF7; for GI50: MCF-7, five-dose assay, 48 h. The test is classed as cell-based, human. The procedure:
Compounds were submitted to the Developmental Therapeutics Program (DTP) of the National Cancer Institute (NCI). The program uses a panel of 60 human tumor cell lines representing nine tissue types, including leukemia, non-small cell lung cancer (NSCLC), melanoma, colon cancer, ovarian cancer, CNS cancer, renal cancer, prostate cancer, and breast cancer, to screen for potential new anti-cancer agents. […] Primary screening of synthesized compounds was performed by testing a single high dose of 10 µM in the full NCI-60 panel. The percent growth of treated cells relative to the no-drug control and relative to the time zero number of cells was measured, and a mean graph was provided. The percentage inhibition was then calculated by subtracting the values obtained from 100.
All compounds were subjected to the NCI in vitro disease-oriented human cells screening panel assay. The human tumor cell lines of the cancer-screening panel are grown in RPMI 1640 medium containing 5% fetal bovine serum and 2 mM L-glutamine. For a typical screening experiment, cells are inoculated into 96-well microtiter plates in 100 μL at plating densities ranging from 5000 to 40,000 cells/well depending on the doubling time of individual cell lines. After cell inoculation, the microtiter plates are incubated at 37 °C, 5% CO2, 95% air, and 100% relative humidity for 24 h prior to the addition of experimental drugs. After 24 h, two plates of each cell line are fixed in situ with TCA to represent a measurement of the cell population for each cell line at the time of drug addition. Experimental drugs are solubilized in dimethyl sulfoxide at 400-fold the desired final maximum test concentration and stored frozen prior to use. At the time of drug addition, an aliquot of frozen concentrate is thawed and diluted to twice the desired final maximum test concentration with complete medium containing 50 μg/mL gentamicin. Additional four, 10-fold, or ½ log serial dilutions are made to provide a total of five drug concentrations plus control. Aliquots of 100 μL of these different drug dilutions are added to the appropriate microtiter wells already containing 100 μL of medium, resulting in the required final drug concentrations. Following drug addition, the plates are incubated for an additional 48 h at 37 °C, 5% CO2, 95% air, and 100% relative humidity. For adherent cells, the assay is terminated by the addition of cold TCA. Cells are fixed in situ by the gentle addition of 50 μL of cold 50% (w/v) TCA (final concentration, 10% TCA) and incubated for 60 min at 4 °C. The supernatant is discarded, and the plates are washed five times with tap water and air-dried. Sulforhodamine B (SRB) solution (100 μL) at 0.4% (w/v) in 1% acetic acid is added to each well, and plates are incubated for 10 min at room temperature. After staining, unbound dye is removed by washing five times with 1% acetic acid, and the plates are air-dried. Bound stain is subsequently solubilized with a 10 mM trizma base, and the absorbance is read on an automated plate reader at a wavelength of 515 nm. For suspension cells, the methodology is the same except that the assay is terminated by fixing settled cells at the bottom of the wells by gently adding 50 μL of 80% TCA (final concentration, 16% TCA). Compounds are screened at a dose of 10 µM, hits showing mean growth inhibition over 60 cell lines >50% are escalated for 5-dose screening assay. To construct a dose-response curve, about 60 cell lines of nine tumor subpanels were incubated with five concentrations (0.01–100 μM) for each compound. Three response parameters (GI50, TGI, and LC50) were calculated for each cell line.

For `CC(=C(c1ccc(Cl)cc1)c1ccc(OCCN2CCOCC2)cc1)c1ccccc1` [Compound 8, E/Z-4-(2-{4-[1-(4-Chloro-phenyl)-2-phenyl-propenyl]-phenoxy}-ethyl)-morpholine], the “Estrogenic Activity (relative β-galactosidase activity)” value at human ERα is listed as 1.85 ± 0.11. This molecule displayed an inhibition at 10 µM in the test on MCF-7 cells (10 µM) of 30.9%.
For `CC(=C(c1ccc(Cl)cc1)c1ccc(OCCN2CCCCCC2)cc1)c1ccccc1` [Compound 9, E/Z-1-(2-{4-[1-(4-Chloro-phenyl)-2-phenyl-propenyl]-phenoxy}-ethyl)-azepane], on human ERα, the “Estrogenic Activity (relative β-galactosidase activity)” value is 6.74 and 6.74 ± 1.67. Moreover, in the test on MCF-7 cells (10 µM), the inhibition at 10 µM came to 24%.
For the molecule `CCN(CC)CCOc1ccc(C(=C(C)c2ccc(OC)c(F)c2)c2ccc(Cl)cc2)cc1` [Compound 21, E/Z-(2-{4-[1-(4-Chlorophenyl)-2-(3-fluoro-4-methoxyphenyl)-propenyl]-phenoxy}-ethyl)-diethyl-amine], on human ERα, the EC50 was determined as 735 ± 13 nM and the “Estrogenic Activity (relative β-galactosidase activity)” value is 2.40 ± 0.77. In the test on MCF-7 cells (10 µM), the inhibition at 10 µM came out at 29.7%.
Regarding `COc1ccc(C(C)=C(c2ccc(Cl)cc2)c2ccc(OCCCN(C)C)cc2)cc1` [Compound 10, E/Z-(3-{4-[1-(4-Chloro-phenyl)-2-(4-methoxy-phenyl)-propenyl]-phenoxy}-propyl)-dimethyl-amine], the “Estrogenic Activity (relative β-galactosidase activity)” value at human ERα is 11.61 and 11.61 ± 0.99. In addition, in the test on MCF-7 cells (10 µM), the inhibition at 10 µM was found to be 63.1%.
In the case of `COc1ccc(C(C)=C(c2ccc(Cl)cc2)c2ccc(OCCN3CCOCC3)cc2)cc1` [Compound 13, E/Z-4-(2-{4-[1-(4-Chloro-phenyl)-2-(4-methoxy-phenyl)-propenyl]-phenoxy}-ethyl)-morpholine], the “Estrogenic Activity (relative β-galactosidase activity)” value on human ERα is 12.41 and 12.41 ± 0.26. In the test with MCF-7 cells (10 µM), this molecule registered an inhibition at 10 µM of 1.21%.
In the case of `CCN(CC)CCOc1ccc(C(=C(C)c2ccc(F)c(OC)c2)c2ccc(Cl)cc2)cc1` [Compound 28, E/Z-(2-{4-[1-(4-Chlorophenyl)-2-(4-fluoro-3-methoxyphenyl)-propenyl]-phenoxy}-ethyl)-diethyl-amine], the “Estrogenic Activity (relative β-galactosidase activity)” value at human ERα came out at 1.37 ± 0.39. Moreover, the inhibition at 10 µM with MCF-7 cells (10 µM) is more than 100%. In the test on MCF-7 cells, this molecule returned a 50% growth inhibitory concentration (GI50) of 2170 nM.
Consider `COc1ccc(C(C)=C(c2ccc(Cl)cc2)c2ccc(OCCN3CCCCCC3)cc2)cc1` [Compound 14, E/Z-1-(2-{4-[1-(4-Chloro-phenyl)-2-(4-methoxy-phenyl)-propenyl]-phenoxy}-ethyl)-azepane], for which the “Estrogenic Activity (relative β-galactosidase activity)” value on human ERα stood at 1.80 ± 0.09. This molecule showed an inhibition at 10 µM in the test with MCF-7 cells (10 µM) of 63.5%.
Consider `COc1ccc(C(C)=C(c2ccc(Cl)cc2)c2ccc(OCCN3CCCCC3)cc2)cc1` [Compound 12, E/Z-1-(2-{4-[1-(4-Chloro-phenyl)-2-(4-methoxy-phenyl)-propenyl]-phenoxy}-ethyl)-piperidine], for which the “Estrogenic Activity (relative β-galactosidase activity)” value at human ERα is listed as 3.65 ± 0.70. Also, the inhibition at 10 µM in the test on MCF-7 cells (10 µM) is 79.7%. Further, halving of growth in the test with MCF-7 cells (GI50) required 600 nM.
Regarding `COc1cc(C(C)=C(c2ccc(Cl)cc2)c2ccc(OCCN3CCCC3)cc2)ccc1F` [Compound 23, E/Z-1-(2-{4-[1-(4-Chlorophenyl)-2-(4-fluoro-3-methoxyphenyl)-propenyl]-phenoxy}-ethyl)-pyrrolidine], the “Estrogenic Activity (relative β-galactosidase activity)” value at human ERα worked out at 1.41 ± 1.01. In the test on MCF-7 cells (10 µM), this molecule gave an inhibition at 10 µM of 73.5%.
Turning to `COc1ccc(C(C)=C(c2ccc(Cl)cc2)c2ccc(OCCCN(C)C)cc2)cc1F` [Compound 15, E/Z-(3-{4-[1-(4-Chlorophenyl)-2-(3-fluoro-4-methoxyphenyl)-propenyl]-phenoxy}-propyl)-dimethyl-amine], at human ERα, a half-maximal effect (EC50) was put at 440 ± 10 nM; the “Estrogenic Activity (relative β-galactosidase activity)” value was 7.77 and 7.77 ± 1.9. Besides, the inhibition at 10 µM in the test with MCF-7 cells (10 µM) was determined as 87%.
With `COc1cc(C(C)=C(c2ccc(O)cc2)c2ccc(Cl)cc2)ccc1F` [Compound 4, E/Z-4-[1-(4-Chlorophenyl)-2-(4-fluoro-3-methoxyphenyl)propenyl]-phenol], on human ERα, the concentration giving a half-maximal response (EC50) was 258 ± 80 nM and the “Estrogenic Activity (relative β-galactosidase activity)” value came out at 6.62 ± 1.74. Besides, the “Growth Inhibition on MCF-7 (%)” value in the test with MCF-7 cells (10 µM) is reported as “No inhibition”.
